Results reported in ChEMBL document CHEMBL1201862, “PubChem BioAssay data set” (2004).
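The compound was tested at five concentrations on cells cultured in 96-well plates, with a 48-hour exposure period. GI50: concentration for 50% inhibition of growth.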 Calls of active or inactive are those of the source. No stated cut-off is given here; in the data, active = GI50 up to about 1.1 µM and inactive = higher.

Key:
Assay in all cases: NCI anticancer screen, dose series, 48 h
[1] = tested on: PC-3
[2] = tested on: UACC-257
[3] = tested on: HCT-116
[4] = tested on: OVCAR-4
[5] = tested on: A549
[6] = tested on: IGROV-1
[7] = tested on: UO-31
[8] = tested on: NCI-H460
[9] = tested on: RPMI-8226
[10] = tested on: SF-295
[11] = tested on: SK-MEL-28
[12] = tested on: ACHN
[13] = tested on: BT-549
[14] = tested on: SN12C
[15] = tested on: SF-539
[16] = tested on: HOP-62
[17] = tested on: HT-29
[18] = tested on: K562
[19] = tested on: HL-60

Measured: GI50

CCCC1c2c(ccc3ccccc23)Oc2ccc3ccccc3c21
inactive: [1] 64.4 µM | [2] 24.2 µM | [3] 20.7 µM | [4] > 100 µM | [5] 47.5 µM | [6] 50.7 µM | [7] > 100 µM | [8] 88.3 µM | [9] 45.2 µM | [10] 28.1 µM | [11] 68.4 µM | [12] 31 µM | [13] > 100 µM | [14] 65.3 µM | [15] > 100 µM | [16] > 100 µM | [17] 28.1 µM

CC(C)(C)OC(=O)NC(Cc1ccccc1)NC(=O)NC(=O)OCc1ccccc1 (stereo not given)
inactive: [1] 18.7 µM | [2] 81.3 µM | [3] 19.2 µM | [5] 70.8 µM | [6] > 100 µM | [7] > 100 µM | [8] 63.7 µM | [9] > 100 µM | [10] 36.6 µM | [11] 38.9 µM | [12] 39.1 µM | [13] 54.5 µM | [14] > 100 µM | [18] 74.5 µM | [15] 25.7 µM | [16] 31.3 µM | [17] > 100 µM

Cc1ccc(/C=C/C(=N/NC(=O)N/N=C(/C=C/c2ccc(C)cc2)C(C)C)C(C)C)cc1
inactive: [1] > 10 µM | [2] > 10 µM | [3] 5.24 µM | [4] 1.5 µM | [5] > 10 µM | [7] > 10 µM | [8] > 10 µM | [9] 3.11 µM | [10] > 10 µM | [12] > 10 µM | [13] > 10 µM | [14] 9.77 µM | [19] 4.42 µM | [18] > 10 µM | [16] > 10 µM | [17] > 10 µM

CC(Br)CN(CC(C)Br)c1ccc2c(c1)Cc1ccccc1-2 (stereo not given)
inactive: [1] 10.8 µM | [2] 14.1 µM | [3] 11.6 µM | [4] 13.1 µM | [5] 12.1 µM | [6] 6.93 µM | [7] 12.4 µM | [8] 2.22 µM | [9] 3.27 µM | [10] 10.7 µM | [11] 18.9 µM | [12] 6.64 µM | [13] 16.7 µM | [14] 11.4 µM | [19] 1.73 µM | [18] 5.92 µM | [16] 11.7 µM | [17] 13 µM

Clc1ccc(Nc2nnc(CNc3ccc(-c4nnc(Nc5ccc(Cl)cc5)s4)cc3)s2)cc1
inactive: [1] 15 µM | [2] 34 µM | [3] 12.5 µM | [4] 27.5 µM | [5] 16.1 µM | [6] 41.2 µM | [7] 4.68 µM | [8] 15.2 µM | [9] 18.4 µM | [10] 24.9 µM | [11] 33.3 µM | [12] 20.2 µM | [13] 71.9 µM | [14] 47.8 µM | [18] 7.71 µM | [16] 30.4 µM | [17] 11 µM

O=CCC1CCCCC1
inactive: [1] > 100 µM | [2] > 100 µM | [3] > 100 µM | [4] > 100 µM | [5] > 100 µM | [6] > 100 µM | [7] > 100 µM | [8] > 100 µM | [9] > 100 µM | [10] > 100 µM | [11] > 100 µM | [12] > 100 µM | [13] > 100 µM | [14] > 100 µM | [18] > 100 µM | [15] > 100 µM | [16] > 100 µM

CN(C)C1(N(C)C)Oc2c(c(=O)n(C)c(=O)n2C)C(c2ccc(F)cc2)C1(F)F (stereo not given)
inactive: [1] > 100 µM | [2] > 100 µM | [3] > 100 µM | [4] > 100 µM | [5] > 100 µM | [7] > 100 µM | [8] > 100 µM | [9] > 100 µM | [10] > 100 µM | [11] > 100 µM | [12] > 100 µM | [13] > 100 µM | [16] > 100 µM
